According to the supplement of paper PMC10307832:

Columns and labels:
Assay in all cases: relative viability (nuclei count vs DMSO), 5 days (fraction); higher = more cells survive
[1] = compound: Cn1cc(-c2cnn3c(N)c(Br)c([C@@H]4CCCNC4)nc23)cn1 + CCNC(=O)c1noc(-c2cc(C(C)C)c(O)cc2O)c1-c1ccc(CN2CCOCC2)cc1 [Luminespib] (partner 0.01 µM)
Summary of the method: (§1)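 Dosing by pin tool came one day after lung cancer cell lines were seeded in 1536-well plates, using either one drug or a fixed anchor-drug dose plus five library-drug doses (not always all listed) in √10 steps. After 5 days, nuclei were counted on 4× images. Relative viability is treated-well nuclei count divided by vehicle-well nuclei count, and values are medians of duplicate plates.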

[2] = compound: Cn1cc(-c2cnn3c(N)c(Br)c([C@@H]4CCCNC4)nc23)cn1 + CC(C)C[C@H](NC(=O)[C@H](Cc1ccccc1)NC(=O)c1cnccn1)B(O)O [Bortezomib] (partner 0.002 µM)
Summary of the method: as §1

[3] = compound: Cn1cc(-c2cnn3c(N)c(Br)c([C@@H]4CCCNC4)nc23)cn1 + Cc1nc(Nc2ncc(C(=O)Nc3c(C)cccc3Cl)s2)cc(N2CCN(CCO)CC2)n1 [Dasatinib] (partner 0.075 µM)
Summary of the method: as §1

[4] = compound: Cn1cc(-c2cnn3c(N)c(Br)c([C@@H]4CCCNC4)nc23)cn1 + CC(=O)c1c(C)c2cnc(Nc3ccc(N4CCNCC4)cn3)nc2n(C2CCCC2)c1=O [Palbociclib] (partner 0.5 µM)
Summary of the method: as §1

| Cell Line | relative viability ([1]; first compound 0.05 µM) | relative viability ([1]; first compound 0.1581 µM) | relative viability ([1]; first compound 0.5 µM) | relative viability ([1]; first compound 1.581 µM) | relative viability ([1]; first compound 5 µM) | relative viability ([2]; first compound 0.05 µM) | relative viability ([2]; first compound 0.1581 µM) | relative viability ([2]; first compound 0.5 µM) | relative viability ([2]; first compound 1.581 µM) | relative viability ([2]; first compound 5 µM) | relative viability ([3]; first compound 0.05 µM) | relative viability ([3]; first compound 0.1581 µM) | relative viability ([3]; first compound 0.5 µM) | relative viability ([3]; first compound 1.581 µM) | relative viability ([3]; first compound 5 µM) | relative viability ([4]; first compound 0.05 µM) | relative viability ([4]; first compound 0.1581 µM) | relative viability ([4]; first compound 0.5 µM) | relative viability ([4]; first compound 1.581 µM) | relative viability ([4]; first compound 5 µM) |
| --- | --- | --- | --- | --- | --- | --- | --- | --- | --- | --- | --- | --- | --- | --- | --- | --- | --- | --- | --- | --- |
| NCI-H1355 | 0.691 | 0.662 | 0.699 | 0.609 | 0.735 | 1.23 | 1.33 | 1.17 | 1.15 | 1.24 | 0.705 | 0.705 | 0.596 | 0.652 | 0.566 | 0.371 | 0.425 | 0.397 | 0.385 | 0.382 |
| SW 1573 | 0.211 | 0.288 | 0.21 | 0.185 | 0.146 | 1.17 | 1.29 | 1.08 | 0.906 | 1.02 | 0.604 | 0.631 | 0.455 | 0.247 | 0.453 | 0.482 | 0.447 | 0.333 | 0.264 | 0.301 |
| NCI-H2347 | 0.506 | 0.677 | 0.473 | 0.409 | 0.297 | 0.839 | 1.01 | 0.747 | 0.727 | 0.869 | 0.319 | 0.255 | 0.285 | 0.324 | 0.209 | 0.41 | 0.442 | 0.421 | 0.39 | 0.43 |
| LCLC-97TM1 | 0.874 | 0.844 | 0.743 | 0.654 | 0.777 | 0.318 | 0.546 | 0.626 | 0.333 | 0.204 | 0.838 | 0.96 | 0.833 | 0.82 | 0.853 | 0.248 | 0.236 | 0.242 | 0.242 | 0.178 |
| EMC-BAC-2 | 1.25 | 1.37 | 1.12 | 0.879 | 1.08 | 1.04 | 1.14 | 1.13 | 1.02 | 1.15 | 0.315 | 0.328 | 0.333 | 0.342 | 0.25 | 0.533 | 0.52 | 0.527 | 0.445 | 0.43 |
| NCI-H1975 | 0.105 | 0.197 | 0.256 | 0.139 | 0.167 | 0.444 | 0.403 | 0.296 | 0.32 | 0.31 | 0.393 | 0.355 | 0.409 | 0.331 | 0.346 | 0.654 | 0.58 | 0.476 | 0.449 | 0.27 |
| BEN | 0.305 | 0.463 | 0.311 | 0.332 | 0.337 | 0.688 | 0.824 | 0.729 | 0.774 | 0.553 | 0.316 | 0.286 | 0.347 | 0.327 | 0.265 | 0.501 | 0.489 | 0.497 | 0.459 | 0.53 |
| NCI-H23 | 0.22 | 0.205 | 0.187 | 0.215 | 0.201 | 1.08 | 1.28 | 1.01 | 0.473 | 0.239 | 0.851 | 0.999 | 0.687 | 0.585 | 0.18 | 0.568 | 0.496 | 0.552 | 0.34 | 0.25 |
| NCI-H520 | 0.207 | 0.206 | 0.217 | 0.219 | 0.221 | 0.702 | 0.609 | 0.385 | 0.471 | 0.344 | 0.178 | 0.258 | 0.191 | 0.176 | 0.165 | 0.266 | 0.232 | 0.231 | 0.199 | 0.172 |
| CAL-12T | 0.517 | 0.173 | 0.252 | 0.289 | 0.204 | 0.728 | 0.899 | 0.775 | 0.718 | 0.315 | 0.467 | 0.427 | 0.26 | 0.299 | 0.174 | 0.505 | 0.569 | 0.476 | 0.189 | 0.202 |
| EPLC-272H | 0.63 | 0.464 | 0.314 | 0.194 | 0.205 | 0.853 | 0.891 | 0.933 | 0.769 | 0.82 | 0.34 | 0.339 | 0.333 | 0.286 | 0.162 | 0.294 | 0.312 | 0.311 | 0.273 | 0.25 |
| LCLC-103H | 1.05 | 1.02 | 0.895 | 0.699 | 0.816 | 1.03 | 1.2 | 1.18 | 0.841 | 1.16 | 0.511 | 0.449 | 0.412 | 0.425 | 0.289 | 0.521 | 0.447 | 0.467 | 0.515 | 0.466 |
| NCI-H2405 | 0.717 | 0.858 | 0.705 | 0.73 | 0.439 | 0.961 | 1.06 | 1.01 | 0.95 | 0.691 | 0.21 | 0.458 | 0.205 | 0.201 | 0.203 | 0.529 | 0.46 | 0.533 | 0.452 | 0.389 |
| HCC-15 | 0.636 | 0.419 | 0.396 | 0.198 | 0.382 | 1.16 | 1.18 | 1.03 | 0.788 | 1.11 | 0.706 | 0.633 | 0.511 | 0.464 | 0.483 | 0.71 | 0.785 | 0.721 | 0.604 | 0.591 |
| PC-3 [JPC-3] | 0.702 | 0.642 | 0.619 | 0.564 | 0.748 | 0.818 | 0.834 | 0.76 | 0.755 | 0.907 | 1.02 | 1.09 | 0.826 | 0.775 | 1.01 | 0.499 | 0.53 | – | 0.512 | 0.562 |
| HARA | 0.752 | 0.706 | 0.631 | 0.376 | 0.16 | 1.19 | 1.16 | 1.18 | 0.764 | 0.224 | 0.37 | 0.316 | 0.332 | 0.252 | 0.157 | 0.246 | 0.264 | 0.322 | 0.299 | 0.158 |
